In US10150755B2, “ASK1 inhibitor compounds and uses thereof” (Seal Rock Therapeutics, Inc., priority 2017, dated 2018) one finds IC50 data, which are given here for 31 molecules.

The structures appear in SMILES notation. pIC50: −log10 of the molar value. Bounds are passed on as bounds.

Sequence of ASK1 (Q99683 649-946 limits assumed): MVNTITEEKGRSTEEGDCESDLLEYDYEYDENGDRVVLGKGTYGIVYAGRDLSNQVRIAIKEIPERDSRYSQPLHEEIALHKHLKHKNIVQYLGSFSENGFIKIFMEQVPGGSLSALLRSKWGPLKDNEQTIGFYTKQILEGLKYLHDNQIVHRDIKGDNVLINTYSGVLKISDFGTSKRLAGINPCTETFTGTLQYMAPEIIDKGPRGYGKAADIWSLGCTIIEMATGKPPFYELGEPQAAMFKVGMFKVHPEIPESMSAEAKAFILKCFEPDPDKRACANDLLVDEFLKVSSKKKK

One assay concerns the target ASK1 (Homo sapiens (Human), UniProt Q99683). Briefly: ASK1 Kinase Assay (Promega ASK1 Kinase Enzyme System, ADP-Glo). In kind it is biochemical. The following applies: enzyme 50 nM, ATP 10 μM. The procedure:
The ASK1 enzymatic assay was run following Promega ASK1 Kinase Enzyme System (Cat #V3881). The kit provides the protocol, enzymes and all reagents necessary to run an assay. Firstly, the compounds, enzyme, substrate and ATP were diluted in provided assay buffer. The final concentration of the enzyme was 50 nM, substrate (Myelin basic protein) 1 μg/ml and ATP 10 μM. The compound and the enzyme were pre-incubated in a 384 well white solid bottom plate (Greiner, Cat#784075) for 10 minutes. After incubation, the substrate and ATP were added and incubated for further 60 minutes. After 60 minutes, ADP-Glo™ was added and plate was incubated for another 40 minutes. After 40 minutes, Kinase Detection Reagent was added and the plate was incubated for 45 minutes. After 45 minutes, plate was read on Perkin Elmer EnVision using luminescence read (0.5 seconds/well).
In general terms: ADP-Glo first removes unused ATP, then detects ADP through luciferase.
As a reminder, the pIC50 is −log10 of the IC50, conventionally taken in molar units. With `CN(C)C(=O)c1ccc2c(c1)CN(c1cccc(-c3nncn3C3CC3)n1)C2=O` [Compound 2, 2-(6-(4-Cyclopropyl-4H-1,2,4-triazol-3-yl)pyridin-2-yl)-N,N-dimethyl-1-oxoisoindoline-5-carboxamide], the pIC50 is > 6.70.

With `Cc1cncc(-c2ccc3c(c2)C(=O)N(c2cccc(-c4nncn4C4CC4)n2)C3)c1` [Compound 54, 2-(6-(4-cyclopropyl-4H-1,2,4-triazol-3-yl)pyridin-2-yl)-6-(5-methylpyridin-3-yl)isoindolin-1-one], the pIC50 was > 6.70. The same measure, in the same setting: the result for `O=C1c2cc(-c3cncc(F)c3)ccc2CN1c1cccc(-c2nncn2C2CC2)n1` [Compound 55, 2-(6-(4-cyclopropyl-4H-1,2,4-triazol-3-yl)pyridin-2-yl)-6-(5-fluoropyridin-3-yl)isoindolin-1-one] reads 6.00 to 6.70. On the same count and under the same terms, with `O=C1c2cc(-c3cnc(C4CC4)nc3)ccc2CN1c1cccc(-c2nncn2C2CC2)n1` [Compound 56, 2-(6-(4-cyclopropyl-4H-1,2,4-triazol-3-yl)pyridin-2-yl)-6-(2-cyclopropylpyrimidin-5-yl)isoindolin-1-one] the figure was > 6.70; with `Cn1ccnc1-c1ccc2c(c1)C(=O)N(c1cccc(-c3nncn3C3CC3)n1)C2` [Compound 57, 2-(6-(4-cyclopropyl-4H-1,2,4-triazol-3-yl)pyridin-2-yl)-6-(1-methyl-1H-imidazol-2-yl)isoindolin-1-one], > 6.70. On the same count and under the same terms, the result for `O=C1c2cc(-c3ccccn3)ccc2CN1c1cccc(-c2nncn2C2CC2)n1` [Compound 58, 2-(6-(4-cyclopropyl-4H-1,2,4-triazol-3-yl)pyridin-2-yl)-6-(pyridin-2-yl)isoindolin-1-one] reads > 6.70; that for `O=C1c2cc(-c3cccnn3)ccc2CN1c1cccc(-c2nncn2C2CC2)n1` [Compound 59, 2-(6-(4-cyclopropyl-4H-1,2,4-triazol-3-yl)pyridin-2-yl)-6-(pyridazin-3-yl)isoindolin-1-one], > 6.70. `O=C1c2cc(-c3ccc(C4CC4)nn3)ccc2CN1c1cccc(-c2nncn2C2CC2)n1` [Compound 61, 2-(6-(4-cyclopropyl-4H-1,2,4-triazol-3-yl)pyridin-2-yl)-6-(6-cyclopropylpyridazin-3-yl)isoindolin-1-one]: the negative-log IC50 (pIC50) was > 6.70. As to `O=C1c2cc(-n3cc(C4CC4)nn3)ccc2CN1c1cccc(-c2nncn2C2CC2)n1` [Compound 62, 6-(4-cyclopropyl-1H-1,2,3-triazol-1-yl)-2-(6-(4-cyclopropyl-4H-1,2,4-triazol-3-yl)pyridin-2-yl)isoindolin-1-one], the pIC50 is > 6.70. The same measure, in the same setting: the result for `O=C1c2cc(-c3cccnc3)c(F)cc2CN1c1cccc(-c2nncn2C2CC2)n1` [Compound 63, 2-(6-(4-cyclopropyl-4H-1,2,4-triazol-3-yl)pyridin-2-yl)-5-fluoro-6-(pyridin-3-yl)isoindolin-1-one] reads > 6.70.

For the molecule `O=C1c2cc(-c3cccnc3)c(Cl)cc2CN1c1cccc(-c2nncn2C2CC2)n1` [Compound 65, 5-chloro-2-(6-(4-cyclopropyl-4H-1,2,4-triazol-3-yl)pyridin-2-yl)-6-(pyridin-3-yl)isoindolin-1-one], the pIC50 is > 6.70. On to `CN(C)c1cc2c(cc1-c1cccnc1)C(=O)N(c1cccc(-c3nncn3C3CC3)n1)C2` [Compound 67, 2-(6-(4-cyclopropyl-4H-1,2,4-triazol-3-yl)pyridin-2-yl)-5-(dimethylamino)-6-(pyridin-3-yl)isoindolin-1-one], for which the pIC50 is > 6.70. `COC(=O)c1ccc2c(c1)C(=O)N(c1cccc(-c3nncn3C3CC3)n1)C2` [Compound 72, methyl 2-(6-(4-cyclopropyl-4H-1,2,4-triazol-3-yl)pyridin-2-yl)-3-oxoisoindoline-5-carboxylate]: the pIC50 was > 6.70. Same read-out and setting: with `O=C(O)c1ccc2c(c1)C(=O)N(c1cccc(-c3nncn3C3CC3)n1)C2` [Compound 73, 2-(6-(4-cyclopropyl-4H-1,2,4-triazol-3-yl)pyridin-2-yl)-3-oxoisoindoline-5-carboxylic acid] the figure was > 6.70; with `CN(C)C(=O)c1ccc2c(c1)C(=O)N(c1cccc(-c3nncn3C3CC3)n1)C2` [Compound 74, 2-(6-(4-cyclopropyl-4H-1,2,4-triazol-3-yl)pyridin-2-yl)-N,N-dimethyl-3-oxoisoindoline-5-carboxamide], 6.00 to 6.70. The same measure, in the same setting: the result for `O=C1c2ccccc2CN1c1cccc(-c2nnc3n2CCC3)n1` [Compound 76, 2-(6-(6,7-dihydro-5H-pyrrolo[2,1-c][1,2,4]triazol-3-yl)pyridin-2-yl)isoindolin-1-one] reads 6.00 to 6.70; that for `O=C1c2ccccc2CN1c1cccc(-c2nnc3n2CCCC3)n1` [Compound 77, 2-(6-(5,6,7,8-Tetrahydro-[1,2,4]triazolo[4,3-a]pyridin-3-yl)pyridin-2-yl)isoindolin-1-one], 5.00 to 6.00.

As for `O=C1c2ccccc2CN1c1cccc(-c2nnc3n2[C@@H](CO)CC3)n1` [Compound 79, (R)-2-(6-(5-(hydroxymethyl)-6,7-dihydro-5H-pyrrolo[2,1-c][1,2,4]triazol-3-yl)pyridin-2-yl)isoindolin-1-one], the pIC50 was > 6.70. Still for that read-out and setting: with `O=C1c2ccccc2CN1c1cccc(-c2nnc3n2[C@H](CO)CC3)n1` [Compound 81, (S)-2-(6-(5-(Hydroxymethyl)-6,7-dihydro-5H-pyrrolo[2,1-c][1,2,4]triazol-3-yl)pyridin-2-yl)isoindolin-1-one] the figure was 5.00 to 6.00; with `O=C1c2ccccc2CN1c1cccc(-n2nncc2C2CC2)n1` [Compound 83, 2-(6-(5-cyclopropyl-1H-1,2,3-triazol-1-yl)pyridin-2-yl)isoindolin-1-one], > 6.70. The same measure, in the same setting: the result for `O=C1c2ccccc2CN1c1cccc(-n2ccnn2)n1` [Compound 84, 2-(6-(1H-1,2,3-triazol-1-yl)pyridin-2-yl)isoindolin-1-one] reads 6.00 to 6.70; that for `CC(C)n1cnnc1-c1cccc(N2Cc3ccc(-c4cccnc4)cc3C2=O)n1` [Compound 85, 2-(6-(4-isopropyl-4H-1,2,4-triazol-3-yl)pyridin-2-yl)-6-(pyridin-3-yl)isoindolin-1-one], > 6.70. Same read-out and setting: the result for `O=C1c2ccccc2CN1c1nccc(-c2nncn2C2CC2)n1` [Compound 86, 2-(4-(4-cyclopropyl-4H-1,2,4-triazol-3-yl)pyrimidin-2-yl)isoindolin-1-one] reads 5.00 to 6.00; that for `O=c1c2ccccc2[nH]n1-c1cccc(-c2nncn2C2CC2)n1` [Compound 87, 2-(6-(4-cyclopropyl-4H-1,2,4-triazol-3-yl)pyridin-2-yl)-1,2-dihydro-3H-indazol-3-one], 5.00 to 6.00; that for `Cn1c2ccccc2c(=O)n1-c1cccc(-c2nncn2C2CC2)n1` [Compound 88, 2-(6-(4-cyclopropyl-4H-1,2,4-triazol-3-yl)pyridin-2-yl)-1-methyl-1,2-dihydro-3H-indazol-3-one], 5.00 to 6.00. In turn, `O=c1c2ccccc2sn1-c1cccc(-c2nncn2C2CC2)n1` [Compound 89, 2-(6-(4-cyclopropyl-4H-1,2,4-triazol-3-yl)pyridin-2-yl)benzo[d]isothiazol-3(2H)-one] showed a pIC50 of 5.00 to 6.00.

A further assay has as its system LPS-induced TNFalpha in Human PBMCs. Briefly: Inhibition of LPS-induced TNFalpha in Human PBMCs. In kind it is cell-based. The note with it: PBMC, 100 ng/ml LPS, 6 hr, read-out: TNFa Inhibition IC50. The procedure:
Cryopreserved human PBMCs were obtained from AllCells (cat# PB003F). After thawing/dilution protocols using RPMI medium supplemented with 5% FBS (heat inactivated), 100 ul/well of 1×10^6 cells/ml were plated into 96 well tissue culture plates (Corning). Cells were then pre-incubated for 1 hr at 37° C. in humidified 5% CO2 and 95% air with test compounds diluted in DMSO (final DMSO concentration 0.3%). Each compound was tested at 10 concentrations in duplicate wells. After the pre-incubation, 100 ng/ml LPS (E. Coli; Sigma) in RPMI media with 5% FBS was added for a 6 hr incubation at 37° C. in humidified 5% CO2 and 95% air. Controls on each plate included cells and LPS only, cells and media only (no LPS), and media only. After the 6 hr incubation, plates were centrifuged and the supernatants transferred to a new plate and frozen for subsequent TNFalpha analysis. Human TNFalpha was analyzed by ELISA according to the manufacturer's instructions (BD Sciences, BD OptEIA™ Cat#550610) and analyzed on a SpectraMax M series (Molecular Devices) microplate reader at OD 450 nm. IC50s were calculated using XLFit4 curve fitting software (IDBS) and a 4-parameter one-site sigmoid dose response fit.
For the molecule `CN(C)C(=O)c1ccc2c(c1)CN(c1cccc(-c3nncn3C3CC3)n1)C2=O` [Compound 2, 2-(6-(4-Cyclopropyl-4H-1,2,4-triazol-3-yl)pyridin-2-yl)-N,N-dimethyl-1-oxoisoindoline-5-carboxamide], the pIC50 is 5.00 to 5.70.

`O=C1c2cc(-c3cccnc3)ccc2CN1c1cccc(-c2nncn2C2CC2)n1` [Compound 40, 2-(6-(4-cyclopropyl-4H-1,2,4-triazol-3-yl)pyridin-2-yl)-6-(pyridin-3-yl)isoindolin-1-one]: the pIC50 is > 5.70. Regarding `Cc1ccncc1-c1ccc2c(c1)C(=O)N(c1cccc(-c3nncn3C3CC3)n1)C2` [Compound 41, 2-(6-(4-cyclopropyl-4H-1,2,4-triazol-3-yl)pyridin-2-yl)-6-(4-methylpyridin-3-yl)isoindolin-1-one], the negative logarithm of the IC50 (pIC50) is > 5.70. On the same count and under the same terms, the result for `O=C1c2cc(-c3ccc(C4CC4)nc3)ccc2CN1c1cccc(-c2nncn2C2CC2)n1` [Compound 46, 2-(6-(4-cyclopropyl-4H-1,2,4-triazol-3-yl)pyridin-2-yl)-6-(6-cyclopropylpyridin-3-yl)isoindolin-1-one] reads > 5.70; that for `O=C1c2cc(-c3cnc(C4CC4)cn3)ccc2CN1c1cccc(-c2nncn2C2CC2)n1` [Compound 60, 2-(6-(4-cyclopropyl-4H-1,2,4-triazol-3-yl)pyridin-2-yl)-6-(5-cyclopropylpyrazin-2-yll)isoindolin-1-one], < 8.00; that for `COc1cc2c(cc1-c1cccnc1)C(=O)N(c1cccc(-c3nncn3C3CC3)n1)C2` [Compound 66, 2-(6-(4-cyclopropyl-4H-1,2,4-triazol-3-yl)pyridin-2-yl)-5-methoxy-6-(pyridin-3-yl)isoindolin-1-one], > 5.70.
